Experimental data taken from patent publication US20180251431A1 (VERTEX PHARMACEUTICALS INCORPORATED, priority 2016, published 2018).

Test system: HEK293 cells
Experiment: HEK293 VLCFA-LPC IC50 determination (13C-labeled C26:0 LPC by UHPLC/MS)
Format: cell-based, human
Details: Homo sapiens, HEK293, 48 h, average of one or more replicates; 13C-labeled C26:0 LPC, 48 hours; read-out: Average HEK293 IC50
Method in brief: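 Suspension HEK293 cells (final 0.5 million/mL after mixing with equal volume) incubated 48 hours with compound plus 13C-acetate (1.0 mg/mL in added media), shaking at 37° C. Lipids extracted with hexane/isopropanol or methanol, C13:0 LPC standard. UHPLC/MS of 13C-labeled C26:0 LPC (638.500/104.100 m/z); IC50 by four-parameter fit.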

| SMILES | IC50 |
| --- | --- |
| CC(C)(O)c1cc(-n2ccc(NC(=O)C3(c4ccccc4F)CC3)n2)ccn1 [Compound 334, 1-(2-fluorophenyl)-N-[1-[2-(1-hydroxy-1-methyl-ethyl)-4-pyridyl]pyrazol-3-yl]cyclopropanecarboxamide] | > 5000 nM |
| COc1nccc(-n2ccc(NC(=O)C3(c4ccccc4F)CC3)n2)c1C#N [Compound 336, N-[1-(3-cyano-2-methoxy-4-pyridyl)pyrazol-3-yl]-1-(2-fluorophenyl)cyclopropanecarboxamide] | > 5000 nM |
| COc1cncc(F)c1-n1ccc(NC(=O)C2(c3ccccc3F)CC2)n1 [Compound 345, N-[1-(3-fluoro-5-methoxy-4-pyridyl)pyrazol-3-yl]-1-(2-fluorophenyl)cyclopropanecarboxamide] | > 2000 nM |
| O=C(Nc1ccn(-c2cncc(Cl)c2)n1)C1(c2ccccc2F)CC1 [Compound 325, N-[1-(5-chloro-3-pyridyl)pyrazol-3-yl]-1-(2-fluorophenyl)cyclopropanecarboxamide] | 73 nM |
| O=C(Nc1ccn(-c2cnc(C(F)(F)F)nc2)n1)C1(c2ccccc2F)CC1 [Compound 381, 1-(2-fluorophenyl)-N-[1-[2-(trifluoromethyl)pyrimidin-5-yl]pyrazol-3-yl]cyclopropanecarboxamide] | > 5000 nM |
| O=C(Nc1ccn(-c2cnc(Cl)c(Cl)c2)n1)C1(c2ccccc2F)CC1 [Compound 379, N-[1-(5,6-dichloro-3-pyridyl)pyrazol-3-yl]-1-(2-fluorophenyl)cyclopropanecarboxamide] | 120 nM |
| Cc1csc(-n2ccc(NC(=O)C3(c4ccccc4F)CC3)n2)n1 [Compound 374, 1-(2-fluorophenyl)-N-(1-(4-methylthiazol-2-yl)-1H-pyrazol-3-yl)cyclopropane-1-carboxamide] | 470 nM |
| O=C(Nc1ccn(-c2ncncc2F)n1)C1(c2ccccc2F)CC1 [Compound 361, 1-(2-fluorophenyl)-N-[1-(5-fluoropyrimidin-4-yl)pyrazol-3-yl]cyclopropanecarboxamide] | 150 nM |
| O=C(Nc1ccn(-c2ncco2)n1)C1(c2ccccc2F)CC1 [Compound 375, 1-(2-fluorophenyl)-N-(1-oxazol-2-ylpyrazol-3-yl)cyclopropanecarboxamide] | 500 nM |
| O=C(Nc1ccn(-c2cncc(F)c2)n1)[C@@]1(c2ncccc2F)CC12CC2 (single isomer, unassigned) [Compound 500] | 430 nM |

Same assay, conditions: Homo sapiens, HEK293, HEK293 cells; average of one or more replicates; read-out: Average HEK293 IC50

| SMILES | IC50 |
| --- | --- |
| O=C(Nc1ccn(-c2cncnc2)n1)C1(c2ncccc2F)CC1 [Compound 459, 1-(3-fluoro-2-pyridyl)-N-(1-pyrimidin-5-ylpyrazol-3-yl)cyclopropanecarboxamide] | 920 nM |
| CCCC(C(=O)Nc1ccn(-c2ccccc2)n1)c1ccccc1 (stereo not drawn) [Compound 176, 2-phenyl-N-(1-phenylpyrazol-3-yl)pentanamide] | 870 nM |
| COc1ncc(-n2ccc(NC(=O)C3(c4ncccc4F)CC3)n2)cc1F [Compound 452, N-[1-(5-fluoro-6-methoxy-3-pyridyl)pyrazol-3-yl]-1-(3-fluoro-2-pyridyl)cyclopropanecarboxamide] | 54 nM |
| COc1cc(-n2ccc(NC(=O)C3(c4ncccc4F)CC3(C)C)n2)ccn1 (stereo not drawn) [Compound 519, 1-(3-fluoro-2-pyridyl)-N-[1-(2-methoxy-4-pyridyl)pyrazol-3-yl]-2,2-dimethyl-cyclopropanecarboxamide] | > 2000 nM |
| O=C(Nc1ccn(-c2ccc(F)c(Cl)c2)n1)C1(c2ccccc2)CC1 [Compound 200, N-[1-(3-chloro-4-fluoro-phenyl)pyrazol-3-yl]-1-phenyl-cyclopropanecarboxamide] | 700 nM |
| O=C(Nc1ccn(-c2ccnc(Cl)c2)n1)C1(c2ccccc2)CC1 [Compound 84, N-(1-(2-chloropyridin-4-yl)-1H-pyrazol-3-yl)-1-phenylcyclopropane-1-carboxamide] | 61 nM |
| CC(C(=O)Nc1ccn(-c2ccccc2)n1)c1ccccc1 (stereo not drawn) [Compound 80, 2-phenyl-N-(1-phenylpyrazol-3-yl)propanamide] | 47 nM |
| O=C(Nc1ccn(-c2ccccc2)n1)C1(c2ccc3c(c2)OC(F)(F)O3)CC1 [Compound 292, 1-(2,2-difluoro-1,3-benzodioxo1-5-yl)-N-(1-phenylpyrazol-3-yl)cyclopropanecarboxamide] | 85 nM |
| O=C(Cc1ccccc1)Nc1ccn(-c2ccc(Cl)nc2)n1 [Compound 103, N-[1-(6-chloro-3-pyridyl)pyrazol-3-yl]-2-phenyl-acetamide] | 580 nM |
| O=C(Cn1nccn1)Nc1ccn(-c2ccccc2)n1 [Compound 298, N-(1-phenylpyrazol-3-yl)-2-(triazol-2-yl)acetamide] | > 2000 nM |
| O=C(Cc1ccsc1)Nc1ccn(-c2ccccc2)n1 [Compound 5, N-(1-phenylpyrazol-3-yl)-2-(3-thienyl)acetamide] | 410 nM |
| O=C(Cc1ccccc1F)Nc1ccn(-c2ccc(Cl)cc2)n1 [Compound 133, N-[1-(4-chlorophenyl)pyrazol-3-yl]-2-(2-fluorophenyl)acetamide] | > 5000 nM |
| O=C(Cc1ccccc1F)Nc1ccn(-c2ccc(Cl)c(F)c2)n1 [Compound 195, N-[1-(4-chloro-3-fluoro-phenyl)pyrazol-3-yl]-2-(2-fluorophenyl)acetamide] | > 2000 nM |
| O=C(Nc1ccn(-c2ccncc2F)n1)C1(c2ccccc2F)CC1 [Compound 137, 1-(2-fluorophenyl)-N-[1-(3-fluoro-4-pyridyl)pyrazol-3-yl]cyclopropanecarboxamide] | 120 nM |
| Cn1cnc(-n2ccc(NC(=O)C3(c4ccccc4F)CC3)n2)c1 [Compound 392, 1-(2-fluorophenyl)-N-(1-(1-methyl-1H-imidazol-4-yl)-1H-pyrazol-3-yl)cyclopropane-1-carboxamide] | > 5000 nM |
| [2H]C([2H])([2H])Oc1ncc(-n2ccc(NC(=O)C3(c4ccccc4F)CC3)n2)cc1F [Compound 441, 1-(2-fluorophenyl)-N-[1-[5-fluoro-6-(trideuteriomethoxy)-3-pyridyl]pyrazol-3-yl]cyclopropanecarboxamide] | 44 nM |

| SMILES | IC50 |
| --- | --- |
| Cn1cnnc1-n1ccc(NC(=O)C2(c3ccccc3F)CC2)n1 [Compound 427, 1-(2-fluorophenyl)-N-[1-(4-methyl-1,2,4-triazol-3-yl)pyrazol-3-yl]cyclopropanecarboxamide] | > 2000 nM |
| O=C(Nc1ccn(-c2ccc(C(F)F)nc2)n1)C1(c2ccccc2F)CC1 [Compound 397, N-[1-[6-(difluoromethyl)-3-pyridyl]pyrazol-3-yl]-1-(2-fluorophenyl)cyclopropanecarboxamide] | > 5000 nM |
| O=C(Nc1ccn(-c2ccc(F)cc2F)n1)C1(c2ccccc2F)CC1 [Compound 448, N-[1-(2,4-difluorophenyl)pyrazol-3-yl]-1-(2-fluorophenyl)cyclopropanecarboxamide] | 140 nM |
| N#Cc1ccccc1C1(C(=O)Nc2ccn(-c3ccnc(F)c3)n2)CC1 [Compound 247, 1-(2-cyanophenyl)-N-[1-(2-fluoro-4-pyridyl)pyrazol-3-yl]cyclopropanecarboxamide] | 2500 nM |
| O=C(Nc1ccn(-c2ccc(OC(F)F)nc2)n1)C1(c2ccccc2F)CC1 [Compound 409, N-[1-[6-(difluoromethoxy)-3-pyridyl]pyrazol-3-yl]-1-(2-fluorophenyl)cyclopropanecarboxamide] | > 5000 nM |
| O=C(Cc1nccs1)Nc1ccn(-c2ccnc(F)c2)n1 [Compound 307, N-[1-(2-fluoro-4-pyridyl)pyrazol-3-yl]-2-thiazol-2-yl-acetamide] | > 2000 nM |
| O=C(Nc1ccn(-c2ccccc2)n1)C1(c2ccc(Cl)cc2)CCCC1 [Compound 79, 1-(4-chlorophenyl)-N-(1-phenylpyrazol-3-yl)cyclopentanecarboxamide] | > 5000 nM |
| O=C(Nc1ccn(-c2cncs2)n1)C1(c2ccccc2F)CC1 [Compound 217, 1-(2-fluorophenyl)-N-(1-thiazol-5-ylpyrazol-3-yl)cyclopropanecarboxamide] | 84 nM |
| O=C(Nc1ccn(-c2ccnc(F)c2)n1)C1(c2ccccc2)CC(F)(F)C1 [Compound 172, 3,3-difluoro-N-[1-(2-fluoro-4-pyridyl)pyrazol-3-yl]-1-phenyl-cyclobutanecarboxamide] | 380 nM |
| O=C(Nc1ccn(-c2ccncc2)n1)C1(c2ccccc2)CC1(F)F (racemic) [Compound 419, 2,2-difluoro-1-phenyl-N-(1-(pyridin-4-yl)-1H-pyrazol-3-yl)cyclopropane-1-carboxamide] | 240 nM |
| [2H]C([2H])([2H])Oc1ccc(-n2ccc(NC(=O)C3(c4ccccc4F)CC3)n2)cn1 [Compound 440, 1-(2-fluorophenyl)-N-[1-[6-(trideuteriomethoxy)-3-pyridyl]pyrazol-3-yl]cyclopropanecarboxamide] | 52 nM |
| O=C(Nc1ccn(-c2ccc(F)cc2)n1)C1(c2ccc(F)cn2)CC1 [Compound 488, N-[1-(4-fluorophenyl)pyrazol-3-yl]-1-(5-fluoro-2-pyridyl)cyclopropanecarboxamide] | 510 nM |
| Cc1cc(NC(=O)C2(c3ncccc3F)CC2C)nn1-c1ccc(F)cc1F (stereo not drawn) [Compound 507, N-[1-(2,4-difluorophenyl)-5-methyl-pyrazol-3-yl]-1-(3-fluoro-2-pyridyl)-2-methyl-cyclopropanecarboxamide] | > 5000 nM |
| O=C(Nc1ccn(-c2ccc(F)c(Cl)c2)n1)C1(c2ccccc2F)CC1 [Compound 198, N-[1-(3-chloro-4-fluoro-phenyl)pyrazol-3-yl]-1-(2-fluorophenyl)cyclopropanecarboxamide] | 720 nM |
| O=C(Cc1ccccc1F)Nc1ccn(-c2ccnc(F)c2)n1 [Compound 203, 2-(2-fluorophenyl)-N-[1-(2-fluoro-4-pyridyl)pyrazol-3-yl]acetamide] | 100 nM |
| O=C(Nc1ccn(-c2ccnc(F)c2)n1)C1(c2ncccc2F)CC1 [Compound 277, 1-(3-f1uoro-2-pyridyl)-N-[1-(2-fluoro-4-pyridyl)pyrazol-3-yl]cyclopropanecarboxamide] | 120 nM |
